Results on 50 molecules are retold here after patent publication US20090156594A1, “HETEROCYCLIC KINASE MODULATORS” (SGX Pharmaceuticals, Inc., priority 2007, published 2009).

Test [1] addresses T1, c-MET (Homo sapiens, UniProt P08581).
T1 construct: expressing the kinase domain of human Met; 6x Histidine tag (TEV-cleavable) (cleaved yes); made in house; host or cells: Sf9 insect cells
Description: MET luminescence-based enzyme assay (Kinase-Glo). It is filed as biochemical. The conditions noted are these: MET kinase domain, 10 μM ATP, 60 min at 21° C. The protocol: Screening data was evaluated using the equation: Z′=1-[3*(σ++σ−)/|μ+−μ−|] […] The subscript designates positive or negative controls. The Z′ score for a robust screening assay should be ≧0.50. The typical threshold=μ+−3*σ+. Any value that falls below the threshold was designated a “hit”.
MET Luminescence-Based Enzyme Assay
MET kinase (see below), Kinase-Glom (Promega Cat#V6712).
(diluted 50 μl into total of 10 ml miliQH2O daily=50 μM ATP working stock); 1% BSA (1 g BSA in 100 ml 0.1M HEPES, pH 7.5, stored at −20° C.), 100 mM MgCl2; 200 μM Staurosporine, 2× Kinase-Glo™ reagent (made fresh or stored at −20° C.).
Standard Assay Setup for 384-well format (20 μl kinase reaction, 40 μl detection reaction): 10 mM MgCl2; 0.3 mg/mil poly Glu-Tyr; 0.1% BSA; 1 μl test compound (in DMSO); 0.4 μg/ml MET kinase; 10 μM ATP; 100 mM HEPES buffer. Positive controls contained DMSO with no test compound. Negative controls contained […] staurosporine. The kinase reactions were initiated at time t=0 by the addition of ATP. Kinase reactions were incubated at 21° C. for 60 min, then 20 μl of Kinase-Glo™ reagent were added to each well to quench the kinase reaction and initiate the luminescence reaction. After a 20 min incubation at 21° C., the luminescence was detected in a plate-reading luminometer.
The cell pellets produced from half of a 12 L Sf9 insect cell culture expressing the kinase domain of human Met were resuspended in a buffer containing 50 mM Tris-HCl pH 7.7 and 250 mM NaCl, in a volume of approximately 40 ml per 1 L of original culture. […] The suspension was stirred for 1 hour at 4° C. Debris was removed by centrifugation for 30 minutes at 39,800×g at 4° C. […] The sample was then poured into a drip column at 4° C. and washed with 10 column volumes of 50 mM Tris-HCl pH 7.8, 500 mM NaCl, 10% Glycerol, […], and 10 mM Methionine. The protein was eluted using a step gradient with two column volumes each of the same buffer containing 50 mM, 200 mM, and 500 mM Imidazole, sequentially. […] The step gradient was run with 15% and then 80% of the B-side (A-side=50 mM Tris-HCl pH 7.8, 500 mM NaCl, 10% Glycerol, 10 mM Imidazole, and 10 mM Methionine; B-side=50 mM Tris-HCl pH 7.8, […], 10% Glycerol, 500 mM Imidazole, and 10 mM Methionine) for 4 column volumes each.

The test system of test [2] is GTL16 cells. Description: 96-well XTT cell survival assay (GTL16 cells). It is filed as cell-based. As to conditions: Homo sapiens, GTL 16, 72 hours. As for the experimental part:
GTL16 cells were maintained in DMEM Medium supplemented with 10% fetal bovine serum (FBS) 2 mM L-Glutamine and 100 units penicillin/100 μg streptomycin, at 37° C. in 5% CO2.
Compounds were Tested in the Following Assays in Duplicate.
96-well XTT assay (GTL16 cells): One day prior to assay the growth media was aspirated off and assay media was added to cells. On the day of the assay, the cells were grown in assay media containing various concentrations of compounds (duplicates) on a 96-well flat bottom plate for 72 hours at 37° C. in 5% CO2. The starting cell number was 5000 cells per well and volume was 120 μl. At the end of the 72-hour incubation, 40 μl of XTT labeling mixture (50:1 solution of sodium 3′-[1-(phenylaminocarbonyl)-3,4-tetrazolium]-bis(4-methoxy-6-nitro) benzene sulfonic acid hydrate and Electron-coupling reagent: PMS (N-methyl dibenzopyrazine methyl sulfate) were added to each well of the plate. After an additional 5 hours of incubation at 37° C., the absorbance reading at 450 nm with a background correction of 650 nm was measured with a spectrophotometer.

T1 sequence (P08581 1078-1345 limits assumed): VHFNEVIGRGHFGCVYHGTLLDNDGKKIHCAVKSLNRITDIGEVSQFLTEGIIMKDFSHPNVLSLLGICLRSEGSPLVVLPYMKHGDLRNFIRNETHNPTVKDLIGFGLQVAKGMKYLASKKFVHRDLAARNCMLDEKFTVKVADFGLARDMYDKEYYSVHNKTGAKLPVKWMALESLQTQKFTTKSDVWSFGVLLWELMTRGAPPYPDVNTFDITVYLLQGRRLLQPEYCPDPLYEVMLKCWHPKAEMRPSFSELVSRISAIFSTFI

The term IC50 denotes the concentration at which inhibition is half-maximal. Consider `Cn1cc(-c2cnc3ccc(Cc4nnc5sc(CNC6CC6)nn45)cc3c2)cn1`, for which the IC50 is below 0.1 µM in test [1] and at most 0.1 µM in test [2].
On to `Cc1nn2c(Cc3c(F)cc4ncc(-c5cnn(C)c5)cc4c3F)nnc2s1`, for which the concentration for half-maximal inhibition (IC50) in test [1] is below 0.1 µM; in test [2], at most 0.1 µM.
As for `C[C@@H](O)[C@@H](N)c1nn2c(Cc3ccc4ncc(-c5cnn(C)c5)cc4c3)nnc2s1`, in test [1], the IC50 lay in the range of 1 to 10 µM.
Consider `Cn1cc(-c2cnc3ccc(Cc4nnc5sc([C@H](N)CC6CCCCC6)nn45)cc3c2)cn1`, for which the IC50 in test [1] is below 0.1 µM; in test [2], 0.1 to 1 µM.
For `Cn1cc(-c2cnc3ccc(Cc4nnc5sc(C6CCC6)nn45)cc3c2)cn1`, in that order: below 0.1 µM and at most 0.1 µM.
Molecule `Brc1cnc2ccc(Cc3nnc4sc(CN5CCCC5)nn34)cc2c1` returned a half-maximal inhibitory concentration (IC50) in test [1] of 0.1 to 1 µM.
With `CNCc1nn2c(Cc3ccc4ncc(-c5cnn(C)c5)cc4c3)nnc2s1`, the results for the IC50 in test [1] and in test [2] were below 0.1 µM and at most 0.1 µM, respectively.
As to `CN[C@H](C)c1nn2c(Cc3ccc4ncc(-c5cnn(C)c5)cc4c3)nnc2s1`, the IC50 in test [1] and in test [2] was 0.1 to 1 µM throughout.
`Cn1cc(-c2cnc3ccc(Cc4nnc5sc(C(N)Cc6cncn6C)nn45)cc3c2)cn1` (centres unmarked) registered an IC50 in test [1] of 0.1 to 1 µM.
Same read-out and setting: as for `CN(C)Cc1nn2c(Cc3c(F)cc4ncc(Br)cc4c3F)nnc2s1`, the figure is 1 to 10 µM.
Turning to `Cn1cc(-c2cnc3ccc(Cc4nnc5nccnn45)cc3c2)cn1` [3-(1-Methyl-1H-pyrazol-4-yl)-6-[1,2,4]triazolo[4,3-b][1,2,4]triazin-3-ylmethyl-quinoline], the concentration for half-maximal inhibition (IC50) is below 0.1 µM in test [1] and at most 0.1 µM in test [2].
`Cn1cc(-c2cnc3ccc(Cc4nnc5sc([C@@H](N)CC6CCCCC6)nn45)cc3c2)cn1` came in with an IC50 in test [1] of 0.1 to 1 µM.
Take `Cc1nn2c(Cc3ccc4ncc(-c5cnn(C)c5)cc4c3F)nnc2s1`: the half-inhibitory concentration (IC50) in test [1] was below 0.1 µM; in test [2] it was at most 0.1 µM.
In the same order, the values of `Cc1nn2c(Cc3cc4cccnc4cc3F)nnc2s1` are 0.1 to 1 µM and 0.1 to 1 µM.
Turning to `Cn1cc(-c2nn3c(Cc4ccc5ncccc5c4)cnc3s2)cn1` [6-[2-(1-methyl-1H-pyrazol-4-yl)-imidazo[2,1-b][1,3,4]thiadiazol-5-ylmethyl]-quinoline], the IC50 in test [1] was below 0.1 µM; in test [2], 0.1 to 1 µM.
Take `Cn1cc(-c2cnc3ccc(Cc4nnc5sc(CNCC(F)(F)F)nn45)cc3c2)cn1`: the IC50 in test [1] is below 0.1 µM; in test [2], at most 0.1 µM.
For `Fc1cc2ncccc2cc1Cc1nnc2sc(-c3ncc[nH]3)nn12`, in that order: 0.1 to 1 µM and 1 to 10 µM.
`Cn1cc(-c2nn3c(Cc4ccc5ncccc5c4)nnc3s2)cn1` [6-[6-(1-Methyl-1H-pyrazol-4-yl)-[1,2,4]triazolo[3,4-b][1,3,4]thiadiazol-3-ylmethyl]-quinoline] gave an IC50 in test [2] of 0.1 to 1 µM.
As to `c1ccc(-c2nn3c(Cc4ccc5ncccc5c4)nnc3s2)cc1`, the figures for the concentration for half-maximal inhibition (IC50) in test [1] and in test [2] were below 0.1 µM and 1 to 10 µM, respectively.
For `C[C@H](N)c1nn2c(Cc3ccc4ncc(-c5cnn(C)c5)cc4c3)nnc2s1`, the IC50 in test [1] fell in the range of 0.1 to 1 µM.
In test [1], `Cn1cc(-c2cnc3ccc(Cc4nnc5sc([C@@H]6CCCN6)nn45)cc3c2)cn1` displayed a 50% inhibitory concentration (IC50) of 0.1 to 1 µM.
On the same count and under the same terms, as for `OCc1nn2c(Cc3ccc4ncc(Br)cc4c3)nnc2s1`, the figure is above 10 µM; as for `Cn1cc(-c2cnc3ccc(Cc4nnc5sc(-c6cccnc6)nn45)cc3c2)cn1` [drawing 217], below 0.1 µM.
As to `CCc1nn2c(Sc3ccc4ncc(-c5cnn(C)c5)cc4c3)nnc2s1`, the IC50 was below 0.1 µM in test [1] and 0.1 to 1 µM in test [2].
For `Cn1cc(-c2cnc3ccc(Cc4nnc5sc(CNCCN6CCOCC6)nn45)cc3c2)cn1`, in that order: below 0.1 µM and 0.1 to 1 µM.
In the same order, the values of `CCc1nn2c(Cc3ccc4ncc(-c5cnn(C)c5)cc4c3)nnc2s1` are below 0.1 µM and at most 0.1 µM.
For the molecule `Cn1cc(-c2nn3c(Cc4c(F)cc5ncccc5c4F)nnc3s2)cn1`, the values for the IC50 in test [1] and in test [2] were below 0.1 µM and at most 0.1 µM, respectively.
On to `Cn1cc(-c2cnc3ccc(Cc4nnc5sc(CNCC6CC6)nn45)cc3c2)cn1`, for which the IC50 is below 0.1 µM in test [1] and at most 0.1 µM in test [2].
Take `Cn1cc(-c2nn3c(Sc4ccc5ncccc5c4)nnc3s2)cn1` [6-[6-(1-Methyl-1H-pyrazol-4-yl)-[1,2,4]triazolo[3,4-b][1,3,4]thiadiazol-3-ylsulfanyl]-quinoline]: the concentration for half-maximal inhibition (IC50) is below 0.1 µM in test [1] and 0.1 to 1 µM in test [2].
`Cn1cc(-c2cnc3ccc(Cc4nnc5sc(-c6cccnc6)nn45)cc3c2)cn1` [drawing 184] returned an IC50 in test [2] of at most 0.1 µM.
For the molecule `Cn1cc(-c2cnc3ccc(Cc4nnc5sc(CNCCO)nn45)cc3c2)cn1`, the IC50 was below 0.1 µM in test [1] and 0.1 to 1 µM in test [2].
Turning to `Cc1nn2c(Cc3c(F)cc4ncc(Br)cc4c3F)nnc2s1`, the IC50 in test [1] and in test [2] was 0.1 to 1 µM in each case.
Take `c1ccc(-c2cn3c(Sc4ccc5ncccc5c4)nnc3s2)cc1`: the half-inhibitory concentration (IC50) in test [1] lay within 0.1 to 1 µM; in test [2], 1 to 10 µM.
Take `CCNCc1nn2c(Cc3ccc4ncc(-c5cnn(C)c5)cc4c3)nnc2s1`: the IC50 was below 0.1 µM in test [1] and 0.1 to 1 µM in test [2].
With `CS(=O)(=O)c1cccc(-c2cnc3nnc(Cc4ccc5ncccc5c4)n3c2)c1`, the IC50 in test [1] was above 10 µM.
As to `COCCc1nn2c(Sc3ccc4ncc(-c5cnn(C)c5)cc4c3)nnc2s1`, the concentration for half-maximal inhibition (IC50) in test [1] was below 0.1 µM; in test [2] it was at most 0.1 µM.
In the same order, the values of `CN(C)Cc1nn2c(Cc3ccc4ncc(-c5cnn(C)c5)cc4c3)nnc2s1` are below 0.1 µM and at most 0.1 µM.
In the case of `Cc1nn2c(Sc3ccc4ncc(-c5cnn(C)c5)cc4c3)nnc2s1`, the results for the IC50 in test [1] and in test [2] were below 0.1 µM and at most 0.1 µM, respectively.
In test [1], `Cc1nn2c(Sc3ccc4ncccc4c3)nnc2s1` came in with an IC50 of 0.1 to 1 µM.
As for `C[C@@H](N)c1nn2c(Cc3ccc4ncc(-c5cnn(C)c5)cc4c3)nnc2s1`, the IC50 in test [1] was below 0.1 µM; in test [2], 0.1 to 1 µM.
For `c1cnc2ccc(Cc3nnc4sc(NC5CC5)nn34)cc2c1` [cyclopropyl-(3-quinolin-6-ylmethyl-[1,2,4]triazolo[3,4-b][1,3,4]thiadiazol-6-yl)-amine], in that order: below 0.1 µM and at most 0.1 µM.
For `Cn1cc(-c2nn3c(Cc4cc5cccnc5cc4F)nnc3s2)cn1`, in that order: below 0.1 µM and at most 0.1 µM.
`NCc1ccc(-c2cnc3nnc(Cc4ccc5ncccc5c4)n3c2)cc1` displayed a half-inhibitory concentration (IC50) in test [1] above 10 µM.
In the case of `c1ccc(-c2cn3c(Cc4ccc5ncccc5c4)nnc3s2)cc1` [6-(6-Phenyl-thiazolo[2,3-c][1,2,4]triazol-3-ylmethyl)-quinoline], in test [1], the IC50 was 1 to 10 µM.
Regarding `COCc1nn2c(Cc3ccc4ncc(-c5cnn(C)c5)cc4c3)nnc2s1`, the IC50 was below 0.1 µM in test [1] and at most 0.1 µM in test [2].
As for `Cc1nn2c(Cc3ccc4ncc(-c5cnn(C)c5)cc4c3)nnc2s1`, the IC50 is below 0.1 µM in test [1] and at most 0.1 µM in test [2].
For `Cn1cc(-c2cnc3ccc(Cc4nnc5sc(C6CC6)nn45)cc3c2)cn1`, in that order: below 0.1 µM and at most 0.1 µM.
In the same order, the values of `Cn1cc(-c2cnc3ccc(Cc4nnc5sc(CNCCF)nn45)cc3c2)cn1` are below 0.1 µM and at most 0.1 µM.
For the molecule `Cn1cc(-c2cnc3ccc(Cc4nnc5sc([C@@H](N)CC6CC6)nn45)cc3c2)cn1`, in test [1], the IC50 was below 0.1 µM.
For `Fc1cc2ncccc2cc1Cc1nnc2sc(C(F)(F)F)nn12`, the IC50 in test [1] was in the range of 1 to 10 µM.
